Assay results taken from PubChem BioAssay AID248 (DTP/NCI, 2004).
“And” between values parts separate entries of the source, which are not always exact repeats. Equal entries are not always repeated. Toxic doses and inconclusive results are not listed. No stated cut-off is given here; in the data, active means T/C of 150% or more; inactive means T/C below 125%.

Test system: L1210 leukemia ip in BDF1 mice, survival T/C
Assay: NCI In Vivo Anticancer Drug Screen. Data for tumor model L1210 Leukemia (intraperitoneal) in B6D2F1 (BDF1) mice
Details: endpoint: mean survival time, higher = longer survival
Outline: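 Ratio derived from survival: compound-dosed mice over vehicle-dosed mice, all bearing a transplantable tumor.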

[1] = dose: 100.0 mg/kg/injection, schedule: Q01DX001 (ip), vehicle: Klucel (hydroxypropylcellulose) (HPC)
[2] = dose: 100.0 mg/kg/injection, schedule: Q04DX003 (ip), vehicle: Klucel (hydroxypropylcellulose) (HPC)
[3] = dose: 200.0 mg/kg/injection, schedule: Q01DX001 (ip), vehicle: Klucel (hydroxypropylcellulose) (HPC)
[4] = dose: 200.0 mg/kg/injection, schedule: Q04DX003 (ip), vehicle: Klucel (hydroxypropylcellulose) (HPC)
[5] = dose: 400.0 mg/kg/injection, schedule: Q04DX003 (ip), vehicle: Klucel (hydroxypropylcellulose) (HPC)
[6] = dose: 100.0 mg/kg/injection, schedule: Q04DX003 (ip), vehicle: saline with Tween-80
[7] = dose: 200.0 mg/kg/injection, schedule: Q04DX003 (ip), vehicle: saline with Tween-80
[8] = dose: 400.0 mg/kg/injection, schedule: Q04DX003 (ip), vehicle: saline with Tween-80
[9] = dose: 100.0 mg/kg/injection, schedule: Q01DX009 (ip), vehicle: Klucel (hydroxypropylcellulose) (HPC)
[10] = dose: 200.0 mg/kg/injection, schedule: Q01DX009 (ip), vehicle: Klucel (hydroxypropylcellulose) (HPC)
[11] = dose: 100.0 mg/kg/injection, schedule: Q04DX002 (ip), vehicle: saline with Tween-80
[12] = dose: 200.0 mg/kg/injection, schedule: Q04DX002 (ip), vehicle: saline with Tween-80
[13] = dose: 400.0 mg/kg/injection, schedule: Q04DX002 (ip), vehicle: saline with Tween-80
[14] = dose: 100.0 mg/kg/injection, schedule: Q01DX009 (ip), vehicle: saline with Tween-80
[15] = dose: 200.0 mg/kg/injection, schedule: Q01DX009 (ip), vehicle: saline with Tween-80
[16] = dose: 400.0 mg/kg/injection, schedule: Q01DX009 (ip), vehicle: saline with Tween-80

Measured: T/C

CC(=O)Nc1cccc(Cc2ccccc2)c1
inactive: [1] 95 % of control | [2] 100 % of control | [3] 97 % of control | [4] 103 % of control | dose: 400.0 mg/kg/injection, schedule: Q01DX001 (ip), vehicle: Klucel (hydroxypropylcellulose) (HPC) 97 % of control | [5] 108 % of control

O=C(O)CCc1cc([N+](=O)[O-])c(O)c([N+](=O)[O-])c1
inactive: [6] 96 % of control | [7] 101 % of control | [8] 99 % of control

CCCCCOC(=O)C#CC(=O)OCCCCC
inactive: dose: 1.56 mg/kg/injection, schedule: Q01DX009 (ip), vehicle: carboxymethylcellulose (CMC) 92 % of control and 101 % of control | dose: 3.13 mg/kg/injection, schedule: Q01DX009 (ip), vehicle: carboxymethylcellulose (CMC) 108 % of control and 89 % of control | dose: 12.5 mg/kg/injection, schedule: Q01DX009 (ip), vehicle: carboxymethylcellulose (CMC) 89 % of control | dose: 12.5 mg/kg/injection, schedule: Q04DX003 (ip), vehicle: carboxymethylcellulose (CMC) 98 % of control | dose: 25.0 mg/kg/injection, schedule: Q04DX003 (ip), vehicle: carboxymethylcellulose (CMC) 98 % of control | dose: 50.0 mg/kg/injection, schedule: Q01DX009 (ip), vehicle: carboxymethylcellulose (CMC) 89 % of control | dose: 50.0 mg/kg/injection, schedule: Q04DX003 (ip), vehicle: carboxymethylcellulose (CMC) 96 % of control and 100 % of control | dose: 100.0 mg/kg/injection, schedule: Q04DX002 (ip), vehicle: carboxymethylcellulose (CMC) 97 % of control and 106 % of control | dose: 200.0 mg/kg/injection, schedule: Q04DX002 (ip), vehicle: carboxymethylcellulose (CMC) 95 % of control and 97 % of control

O=C(N/N=C\c1cc(Cl)cc(Cl)c1O)c1cccnc1
inactive: [9] 100 % of control | [10] 89 % of control

O=C(O)c1c(F)cccc1Cl
inactive: [11] 93 % of control | [12] 108 % of control | [13] 106 % of control

FC(F)(F)C(Cl)(Cc1ccc2ccccc2n1)C(F)(F)F
inactive: dose: 50.0 mg/kg/injection, schedule: Q04DX003 (ip), vehicle: saline with Tween-80 102 % of control | [14] 105 % of control | [6] 101 % of control | [15] 100 % of control | [7] 102 % of control | [16] 103 % of control | [8] 94 % of control

O=S1(=O)C(Cc2ccccc2)CCC1Cc1ccccc1 (stereo unspecified)
inactive: [2] 102 % of control | [4] 94 % of control | [5] 102 % of control

CCN=C(N)SCCS(=O)(=O)O
inactive: dose: 100.0 mg/kg/injection, schedule: Q04DX002 (ip), vehicle: saline 98 % of control | dose: 200.0 mg/kg/injection, schedule: Q04DX002 (ip), vehicle: saline 95 % of control | dose: 400.0 mg/kg/injection, schedule: Q04DX002 (ip), vehicle: saline 92 % of control

O=C1Nc2ccc(Br)cc2C1=Nc1cccnc1
inactive: dose: 100.0 mg/kg/injection, schedule: Q04DX002 (ip), vehicle: Klucel (hydroxypropylcellulose) (HPC) 116 % of control | dose: 200.0 mg/kg/injection, schedule: Q04DX002 (ip), vehicle: Klucel (hydroxypropylcellulose) (HPC) 95 % of control | dose: 400.0 mg/kg/injection, schedule: Q04DX002 (ip), vehicle: Klucel (hydroxypropylcellulose) (HPC) 116 % of control

O=C(N1C(c2ccc(Cl)cc2)CC2(CC1c1ccc(Cl)cc1)SSC1(CC(c3ccc(Cl)cc3)N(C(=O)C(F)(F)F)C(c3ccc(Cl)cc3)C1)S2)C(F)(F)F (stereo unspecified)
inactive: dose: 100.0 mg/kg/injection, schedule: Q01DX009 (ip), vehicle: saline 102 % of control | dose: 100.0 mg/kg/injection, schedule: Q04DX003 (ip), vehicle: saline 95 % of control | dose: 200.0 mg/kg/injection, schedule: Q01DX009 (ip), vehicle: saline 98 % of control | dose: 200.0 mg/kg/injection, schedule: Q04DX003 (ip), vehicle: saline 97 % of control | dose: 400.0 mg/kg/injection, schedule: Q01DX009 (ip), vehicle: saline 105 % of control | dose: 400.0 mg/kg/injection, schedule: Q04DX003 (ip), vehicle: saline 95 % of control

COc1cccc(/C=N/NC(=O)C[n+]2ccccc2)c1OC
inactive: dose: 25.0 mg/kg/injection, schedule: Q01DX009 (ip), vehicle: saline with Tween-80 98 % of control | dose: 50.0 mg/kg/injection, schedule: Q01DX009 (ip), vehicle: saline with Tween-80 106 % of control | [6] 113 % of control

O=c1cc(NCc2cccc([N+](=O)[O-])c2)[nH]c(=O)[nH]1
inactive: dose: 50.0 mg/kg/injection, schedule: Q01DX001 (ip), vehicle: Klucel (hydroxypropylcellulose) (HPC) 91 % of control | [1] 89 % of control | [3] 93 % of control

Cc1cc(C)c(NC(=S)NC(=O)c2ccccc2)cc1C
inactive: dose: 100.0 mg/kg/injection, schedule: Q04DX002 (ip), vehicle: gum acacia 88 % of control | dose: 200.0 mg/kg/injection, schedule: Q04DX002 (ip), vehicle: gum acacia 100 % of control | dose: 400.0 mg/kg/injection, schedule: Q04DX002 (ip), vehicle: gum acacia 96 % of control

Cc1ccc(S(=O)(=O)NC(C)(C)CN)cc1
inactive: dose: 75.0 mg/kg/injection, schedule: Q01DX001 (ip), vehicle: other 103 % of control | dose: 150.0 mg/kg/injection, schedule: Q01DX001 (ip), vehicle: other 101 % of control | dose: 300.0 mg/kg/injection, schedule: Q01DX001 (ip), vehicle: other 95 % of control

COc1ccc(/C=C\c2nc3ccccc3c(=O)[nH]2)cc1
inactive: [6] 95 % of control | [7] 88 % of control | [8] 95 % of control

CCOC(=O)Nc1ccccc1-c1ccccc1
inactive: dose: 100.0 mg/kg/injection, schedule: Q04DX002 (sc), vehicle: olive oil, sesame oil, peanut oil 94 % of control | dose: 200.0 mg/kg/injection, schedule: Q04DX002 (sc), vehicle: olive oil, sesame oil, peanut oil 105 % of control | dose: 400.0 mg/kg/injection, schedule: Q04DX002 (sc), vehicle: olive oil, sesame oil, peanut oil 97 % of control

[O-][N+](=Nc1ccc(Cl)cc1)c1ccc(Cl)cc1
inactive: dose: 100.0 mg/kg/injection, schedule: Q01DX001 (ip), vehicle: gum acacia 92 % of control | dose: 100.0 mg/kg/injection, schedule: Q04DX003 (ip), vehicle: gum acacia 97 % of control | dose: 200.0 mg/kg/injection, schedule: Q01DX001 (ip), vehicle: gum acacia 93 % of control | dose: 200.0 mg/kg/injection, schedule: Q04DX003 (ip), vehicle: gum acacia 87 % of control | dose: 400.0 mg/kg/injection, schedule: Q01DX001 (ip), vehicle: gum acacia 92 % of control | dose: 400.0 mg/kg/injection, schedule: Q04DX003 (ip), vehicle: gum acacia 91 % of control

COC(=O)c1ccccc1NC(=S)NC(=O)C(C)Oc1ccccc1 (stereo unspecified)
inactive: dose: 100.0 mg/kg/injection, schedule: Q01DX001 (ip), vehicle: saline with Tween-80 111 % of control | [14] 108 % of control and 109 % of control | [11] 96 % of control and 108 % of control | [6] 107 % of control | dose: 200.0 mg/kg/injection, schedule: Q01DX001 (ip), vehicle: saline with Tween-80 95 % of control | [15] 95 % of control and 100 % of control | [12] 98 % of control and 107 % of control | [7] 98 % of control | dose: 400.0 mg/kg/injection, schedule: Q01DX001 (ip), vehicle: saline with Tween-80 98 % of control | [16] 92 % of control | [13] 101 % of control and 104 % of control | [8] 106 % of control

CC(C)(C)NC(=O)Oc1cccnc1
inactive: [9] 93 % of control | [10] 102 % of control

OC(c1ccccc1)C(c1ccccc1)N1CCCC1 (stereo unspecified)
inactive: dose: 75.0 mg/kg/injection, schedule: Q01DX001 (ip), vehicle: saline 94 % of control | dose: 150.0 mg/kg/injection, schedule: Q01DX001 (ip), vehicle: saline 97 % of control | dose: 300.0 mg/kg/injection, schedule: Q01DX001 (ip), vehicle: saline 92 % of control
